Results as given in the supplement of paper PMC10307832.

How the values were obtained:
Assay in all cases: relative viability (nuclei count vs DMSO), 5 days (fraction); higher = more cells survive
[1] = system: LC-2-ad; conditions: first compound 8 µM
How it was run: (§1)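 After 5 days of treatment, lung cancer cells in 1536-well plates were fixed and stained in a single step (final 0.05% Triton X-100, 1% formaldehyde, 1 ug/ml Hoechst) and their nuclei counted on 4× images. Treatment had been applied by pin tool the day after seeding as one drug alone or as a fixed anchor-drug dose with five library-drug doses (not always all listed) in √10 steps. Relative viability is the nuclei count of treated wells divided by that of vehicle wells, and values are medians of duplicate plates.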

[2] = system: SK-MES-1
How it was run: as §1

[3] = system: NCI-H1944
How it was run: as §1

[4] = system: HCC-78
How it was run: as §1

[5] = system: NCI-H650
How it was run: as §1

[6] = system: NCI-H1666
How it was run: as §1

[7] = system: LCLC-97TM1
How it was run: as §1

[8] = system: NCI-H1975
How it was run: as §1

[9] = system: LU99A
How it was run: as §1

[10] = system: LXF-289
How it was run: as §1

[11] = system: NCI-H358
How it was run: as §1

[12] = system: NCI-H596
How it was run: as §1

## O=c1cc(-c2cccc3c2Sc2ccccc2S3)oc(N2CCOCC2)c1 + N=C(N)NC(=N)NCCc1ccccc1 [Phenformin] (partner 250 µM)
[1]
  relative viability: 0.592
[2]; first compound 0.08 µM
  relative viability: 0.681
[2]; first compound 0.253 µM
  relative viability: 0.762
[2]; first compound 0.8 µM
  relative viability: 0.649
[2]; first compound 2.53 µM
  relative viability: 0.642
[2]; first compound 8 µM
  relative viability: 0.666
[3]; first compound 0.08 µM
  relative viability: 0.192
[3]; first compound 0.253 µM
  relative viability: 0.21
[3]; first compound 0.8 µM
  relative viability: 0.186
[3]; first compound 2.53 µM
  relative viability: 0.168
[3]; first compound 8 µM
  relative viability: 0.22
[4]; first compound 0.08 µM
  relative viability: 0.62
[4]; first compound 0.253 µM
  relative viability: 0.769
[4]; first compound 0.8 µM
  relative viability: 0.638
[4]; first compound 2.53 µM
  relative viability: 0.555
[4]; first compound 8 µM
  relative viability: 0.667
[5]; first compound 0.08 µM
  relative viability: 0.386
[5]; first compound 0.253 µM
  relative viability: 0.437
[5]; first compound 0.8 µM
  relative viability: 0.461
[5]; first compound 8 µM
  relative viability: 0.452
[6]; first compound 0.08 µM
  relative viability: 0.601
[6]; first compound 0.253 µM
  relative viability: 0.644
[6]; first compound 0.8 µM
  relative viability: 0.578
[6]; first compound 2.53 µM
  relative viability: 0.572
[6]; first compound 8 µM
  relative viability: 0.585
[7]; first compound 0.08 µM
  relative viability: 0.403
[7]; first compound 0.253 µM
  relative viability: 0.361
[7]; first compound 0.8 µM
  relative viability: 0.475
[7]; first compound 2.53 µM
  relative viability: 0.418
[7]; first compound 8 µM
  relative viability: 0.496
[8]; first compound 0.08 µM
  relative viability: 0.42
[8]; first compound 0.253 µM
  relative viability: 0.488
[8]; first compound 0.8 µM
  relative viability: 0.418
[8]; first compound 2.53 µM
  relative viability: 0.386
[8]; first compound 8 µM
  relative viability: 0.418
[9]; first compound 0.08 µM
  relative viability: 0.872
[9]; first compound 0.253 µM
  relative viability: 1.08
[9]; first compound 0.8 µM
  relative viability: 1.03
[9]; first compound 2.53 µM
  relative viability: 0.896
[9]; first compound 8 µM
  relative viability: 1
[10]; first compound 0.08 µM
  relative viability: 0.531
[10]; first compound 0.253 µM
  relative viability: 0.526
[10]; first compound 0.8 µM
  relative viability: 0.556
[10]; first compound 2.53 µM
  relative viability: 0.431
[10]; first compound 8 µM
  relative viability: 0.558
[11]; first compound 0.08 µM
  relative viability: 0.301
[11]; first compound 0.253 µM
  relative viability: 0.436
[11]; first compound 0.8 µM
  relative viability: 0.378
[11]; first compound 2.53 µM
  relative viability: 0.362
[11]; first compound 8 µM
  relative viability: 0.356
[12]; first compound 0.08 µM
  relative viability: 0.808
[12]; first compound 0.253 µM
  relative viability: 0.812
[12]; first compound 0.8 µM
  relative viability: 0.921
[12]; first compound 2.53 µM
  relative viability: 0.756
[12]; first compound 8 µM
  relative viability: 0.887
